# Results reported in paper PMC8878317, “Chemogenomics identifies acetyl-coenzyme A synthetase as a target for malaria treatment and prevention” (Cell Chemical Biology, 2022).
# Where two headings read alike, the source gives them in different places.
# Columns and labels:
# [1] = test system: liver-stage P. berghei parasites (Pbluc); experiment: Liver-stage P. berghei assay (Pbluc); type: cell-based; conditions: Plasmodium berghei
# [2] = test system: P. falciparum NF54-PfAcAS-cKD; experiment: cKD compound susceptibility assay (luminescence, 72 hr), PfAcAS cKD line; type: cell-based; conditions: Plasmodium falciparum
# Text: We used CRISPR-Cas9 to modify the native PfAcAS locus and install the linear pSN054 donor vector ([Nasamu et al., 2020]) that incorporates a C-terminal V5 and 2xHA-tags, a 10x aptamer array, and the TetR-DOZI expression cassette containing the blasticidin S deaminase gene, the reporter gene Renilla luciferase (RLuc), and the fusion proteins TetR-DOZI ([Ganesan et al., 2016]). The right homology region (RHR) was PCR amplified and inserted into pSN054 using the I-SceI restriction site. Fragments corresponding to the left homology region (LHR) fused to the re-codonized 3′-end of the gene (bp 2710–2991) as well as the target-specifying guide RNA sequence were synthesized using the BioXP 3200 System (SGI-DNA) and cloned into pSN054 using restriction sites FseI/AsisI and AflII, respectively. Donor vector generation was carried out via Gibson assembly, and the final construct was confirmed by restriction digests and Sanger sequencing. Primers used in this study are listed in the key resources table.
# Transfection into Cas9-and T7 RNA polymerase-expressing NF54 parasites was carried out by preloading erythrocytes with the AcAS_pSN054 plasmid as described previously ([Deitsch et al., 2001]). Briefly, 50–100 μg of purified plasmid DNA were mixed with human red blood cells in 0.2 cm cuvettes and subjected to 8 square wave electroporation pulses of 365 V for 1 ms each, separated by 0.1 s. The DNA preloaded red blood cells were inoculated with schizont-stage parasites (e.g. NF54attB, NF54:pCRISPR) to achieve starting parasitemias ≤1% in RPMI 1640 Complete media. Cultures were maintained in 500 nM anhydrotetracycline (aTc; Sigma-Aldrich 37,919) and 2.5 μg/mL Blasticidin S (RPI Corp B12150–0.1). Emergence of transfectants was monitored via Giemsa smears and RLuc measurements. Clonal parasites were obtained by limiting dilution ([Rosario, 1981]).
# Synchronous ring-stage, aptamer-regulated PfAcAS and control parasite lines were resuspended in varying aTc concentrations (high = 50 nM, low = 1 nM, and no aTc) and distributed into the drug plate. DMSO carrier and chloroquine (200 nM) wells served as positive and negative controls.
# [3] = test system: P. falciparum NF54-PfACS11-cKD; experiment: cKD compound susceptibility assay, PfACS11 cKD line; type: cell-based; conditions: 50 nM aTc vs no aTc
# [4] = biological target: T1, HsAcAS WT (Homo sapiens, UniProt Q9NR19); experiment: HsAcAS Rapid-Fire QQQ mass spectrometry assay; type: biochemical; conditions: for IC50: approximate Km for each substrate, read-out: IC50 (μM), AcAS HsWT
# T1 construct: made in house; host or cells: Expi293 cells (pCDNA 3.1, transient transfection)
# T1 sequence (Q9NR19 whole entry): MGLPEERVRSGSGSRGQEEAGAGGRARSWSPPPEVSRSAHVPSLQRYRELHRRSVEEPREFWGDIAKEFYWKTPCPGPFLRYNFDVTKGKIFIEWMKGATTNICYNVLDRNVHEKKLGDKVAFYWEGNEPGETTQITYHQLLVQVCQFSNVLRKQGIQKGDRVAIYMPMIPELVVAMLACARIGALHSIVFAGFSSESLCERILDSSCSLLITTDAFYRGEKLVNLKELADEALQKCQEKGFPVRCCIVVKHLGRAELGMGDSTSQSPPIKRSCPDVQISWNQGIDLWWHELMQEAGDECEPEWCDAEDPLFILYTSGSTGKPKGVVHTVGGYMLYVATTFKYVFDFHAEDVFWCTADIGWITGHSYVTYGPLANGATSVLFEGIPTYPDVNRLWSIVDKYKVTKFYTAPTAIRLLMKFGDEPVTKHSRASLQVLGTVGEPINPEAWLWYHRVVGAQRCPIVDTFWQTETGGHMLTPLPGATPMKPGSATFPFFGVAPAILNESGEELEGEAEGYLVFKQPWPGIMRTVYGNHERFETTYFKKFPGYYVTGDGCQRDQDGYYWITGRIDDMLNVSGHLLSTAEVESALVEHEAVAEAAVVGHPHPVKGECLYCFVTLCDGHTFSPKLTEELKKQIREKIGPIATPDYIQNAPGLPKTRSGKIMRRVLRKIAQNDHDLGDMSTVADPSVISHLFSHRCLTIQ
# Protocol: The human form of acetyl-CoA synthetase was assayed in 100 mM HEPES (pH7.4), 100 mM NaCl, 250 mM KCl, 50 mM MgCl2, 1 mM DTT, 0.005% NP40, 400 μM ATP, 70 μM acetate, 40 μM CoA and 2 nM recombinant HsAcAS. Assay ready plates containing different concentrations of inhibitor were prepared using an Echo 550 acoustic dispenser (Labcyte Inc.), dispensing 150 nL of compound per well. Assays were conducted in a total volume of 15 μL for 30 min at room temperature before being quenched with the addition of 85 μL 1% formic acid containing 0.5 μg/mL n-Propionyl coenzyme A (Sigma P5397) as an internal standard. Reaction products were detected using a RapidFire 365 system (Agilent, Santa Clara, CA) coupled with a triple quadrupole mass spectrometer 6740 (Agilent).
# The sipper was washed to minimize carryover with 0.1% TFA in deionized water followed by 0.1% TFA in acetonitrile/deionized water (95%/5%, v/v). The sipper was washed to minimize carryover with deionized water followed by acetonitrile. Aspiration time, load/wash time, elution time, and re-equilibration time were set to 600, 3000, 5000, and 500 ms, respectively, with a cycle time of approximately 10 s. The triple-quadrupole mass spectrometer with electrospray ion source was operated in positive multiple reaction monitoring (MRM) mode. The detailed setting for the mass spectrometer parameters was as follows: capillary voltage, 3000 V; gas temperature, 350°C; gas flow, 7 L/min; nebulizer, 40 psi; sheath gas temperature, 300°C′ sheath gas flow, 11 L/min; and nozzle voltage, 1500 V. The MRM transitions for acetyl-CoA as a reaction product were set as 810.1/303.1 & 810.1/428.1 (quantifier & qualifier with dwell time of 50 ms, 100V fragmentor, and collision energies of 30 & 28 eV respectively) and for n-propionyl-CoA as an internal standard as 824.2/317.2 & 824.2/428.0 (quantifier & qualifier with dwell time of 50 ms, 100V fragmentor, and collision energies of 32 & 26 eV respectively). The mass resolution window for both parental and daughter ions was set at as a unit (0.7 Da). Peak areas were integrated, and area ratios of acetyl-CoA to the internal standard (n-propionyl CoA) were used for quantitation. Data were converted to % inhibition relative to the uninhibited enzyme control and fitted to Equation 3.
# [5] = NF54, read-out: PfAcAS cKD EC50 ± SD (nM) (1nM aTc)
# [6] = NF54, read-out: PfAcAS cKD EC50 ± SD (nM) (50nM aTc)
Compound,EC50 [1] [nM],"EC50 [2, 5] [nM]","EC50 [2, 6] [nM]",effect of conditional knockdown of PfACS11 on parasite sensitivity [3],IC50 [4] [µM],"Hill, AcAS HsWT [4]"
CCN(CC)S(=O)(=O)c1ccc(Cl)c(C(=O)Nc2ccc3nc(C)sc3c2)c1 [MMV019721],2100,7 ± 1.2,43 ± 8.5,did not increase parasite sensitivity,> 100,–
O=C(NNC(=O)c1csnn1)c1ccc(Cl)cc1 [MMV084978],520 ± 210,45 ± 4.4,240 ± 64,did not increase parasite sensitivity,18 ± 1.9,0.85 ± 0.07
